From US6974799B2, “Compositions containing mixtures of tetrapeptides and tripeptides” (Sederma S.A.S., priority 2003, dated 2005)
No end group written: not given here. *: point of attachment. Oleoyl = CCCCCCCC/C=C\CCCCCCCC(=O)*; Palmitoyl = CCCCCCCCCCCCCCCC(=O)*

Experiments:
Collagen I = Collagen I in supernatant of normal human skin fibroblasts, Elisa; format: cell-based; conditions: for Collagen I: Percentage of variation with respect to solvent: 3 × 10E−4% ascorbic acid, 3 days; for effect on biomolecule synthesis under these experimental conditions (in words) / collagen I stimulation (in words): Table 1 conditions; for collagen I stimulation (in words): alone or in combination
Method: In generating the data in Table 1, normal human skin fibroblasts were cultivated in 24 well-plates in DMEM with 10% of Fetal Calf Serum (“FCS”) during 24 h, then rinsed. The cells then received the products to be tested in a medium DMEM without FCS (“Fetal Calf Serum”) containing ascorbic acid. The contact of cells with product was carried out during 3 days, then supernatants was taken and frozen. Each test includes a negative control without solvent, a control solvent and a positive control (10^−6% of Transforming Growth Factor-β (“TGF-β”)). Each determination was carried out n=3. Several repetitions independent of the tests can be made. Assaying of the interesting molecules was carried out by Elisa (Collagen I & IV; Fibronectine) or by a colorimetric method (hyaluronic acid).
(§1) Normal human skin fibroblasts are cultivated in 24 well-plates in DMEM with 10% of FCS during 24 h, then rinsed. The cells then received the products to be tested in a medium DMEM without FCS containing ascorbic acid. The contact of cells with product was carried out during 3 days, then supernatants are taken and frozen. Each test included a negative control without solvent, a control solvent and a positive control (10^E-6% of TGF-β). Each determination was carried out n=3. Several repetitions independent of the tests were made. Assaying of the interesting molecules was carried out by Elisa (Collagen I & IV; Fibronectine) and by a calorimetric method (hyaluronic acid).

Fibronectin = Fibronectin in supernatant of normal human skin fibroblasts, Elisa; format: cell-based; conditions: 3 × 10E−4% ascorbic acid, 3 days
Method: (§2) In generating the data in Table 1, normal human skin fibroblasts were cultivated in 24 well-plates in DMEM with 10% of Fetal Calf Serum (“FCS”) during 24 h, then rinsed. The cells then received the products to be tested in a medium DMEM without FCS (“Fetal Calf Serum”) containing ascorbic acid. The contact of cells with product was carried out during 3 days, then supernatants was taken and frozen. Each test includes a negative control without solvent, a control solvent and a positive control (10^−6% of Transforming Growth Factor-β (“TGF-β”)). Each determination was carried out n=3. Several repetitions independent of the tests can be made. Assaying of the interesting molecules was carried out by Elisa (Collagen I & IV; Fibronectine) or by a colorimetric method (hyaluronic acid). […] Higher concentrations were not tested because of cytotoxicity, and the other biomolecules were not assayed (n.t.=not tested) because of the lack of initial response in collagen I stimulation, which is the essential, primary parameter.
as §1

Collagen IV = Collagen IV in supernatant of normal human skin fibroblasts, Elisa; format: cell-based; conditions: 3 × 10E−4% ascorbic acid, 3 days
Method: as §2, §1

Hyaluronic Acid = assay: Hyaluronic acid in supernatant of normal human skin fibroblasts, colorimetric method; format: cell-based; conditions: 3 × 10E−4% ascorbic acid, 3 days
Method: as §2, §1

collagen [1] = assay: Increase in synthesis of collagen (in vitro), fibroblasts of human skin, ELISA; format: cell-based; conditions: 72 hours
Method: Fibroblasts of human skin are incubated for 72 hours in two culture mediums enriched in vitamin C (1.5 and 15 ppm), in the presence of the peptide N-palmitoyl-Gly-Gln-Pro-Arg (SEQ ID NO: 3) at two different concentrations, 2.5 ppm and 3.6 ppm. After this incubation, the media is collected and cell viability is evaluated by MTT assay. The measurement of collagen is then carried out by ELISA in each cell lysate. Tests were done in triplicate.
In parallel, negative controls should be carried out under the same conditions, but in the absence of the peptides.
The following results, shown in Table 2, give the increase of collagen synthesis compared to the results obtained in the blank tests (without peptide): […]

collagen [2] = conditions: background statement on EYELISS components; cited from earlier work

N-Palmitoyl-Gly-His-Lys [Pal GHK]
Collagen I: Percentage of variation with respect to solvent (Collagen I; 1 ppm): +9% | Collagen I: Percentage of variation with respect to solvent (Collagen I; 3 ppm): −11% | Collagen I: Percentage of variation with respect to solvent (Collagen I; 5 ppm): +11% | Collagen I: Percentage of variation with respect to solvent (Collagen I; 5 ppm, listed as N-Palmitoyl-Gly-His-Lys): +11% | Collagen I: Percentage of variation with respect to solvent (Collagen I; 7.3 ppm): −9% | Collagen I: Percentage of variation with respect to solvent (Collagen I; 7.3 ppm, listed as tripeptide): reduction in synthesis | effect on biomolecule synthesis under these experimental conditions (in words) (Collagen I): essentially no effect | Fibronectin: Percentage of variation with respect to solvent (Fibronectin; 1 ppm): +8% | Fibronectin: Percentage of variation with respect to solvent (Fibronectin; 3 ppm): +2% | Fibronectin: Percentage of variation with respect to solvent (Fibronectin; 5 ppm): −15% | Fibronectin: Percentage of variation with respect to solvent (Fibronectin; 7.3 ppm): +13% | Collagen IV: Percentage of variation with respect to solvent (Collagen IV; 1 ppm): +5% | Collagen IV: Percentage of variation with respect to solvent (Collagen IV; 3 ppm): −4% | Collagen IV: Percentage of variation with respect to solvent (Collagen IV; 5 ppm): +6% | Collagen IV: Percentage of variation with respect to solvent (Collagen IV; 7.3 ppm): −9% | Hyaluronic Acid: Percentage of variation with respect to solvent (Hyaluronic Acid; 1 ppm): +3% | Hyaluronic Acid: Percentage of variation with respect to solvent (Hyaluronic Acid; 3 ppm): +11% | Hyaluronic Acid: Percentage of variation with respect to solvent (Hyaluronic Acid; 5 ppm): 0% | Hyaluronic Acid: Percentage of variation with respect to solvent (Hyaluronic Acid; 7.3 ppm): −1%

Pal-YGGF (Palmitoyl-YGGF) [palmitoyl derivative of YGGF=Tyr-Gly-Gly-Phe, fragment of enkephaline]
Collagen I: Percentage of variation with respect to solvent (Collagen I; 1 ppm): +5% | Collagen I: Percentage of variation with respect to solvent (Collagen I; 3 ppm): −6% | Collagen I: Percentage of variation with respect to solvent (Collagen I; 5 ppm): +4% | collagen I stimulation (in words) (Collagen I): do not show collagen I stimulation

N-Palmitoyl-Lys-Thr-Thr-Lys-Ser (Palmitoyl-KTTKS) [Pal KTTKS, commercially successful pentapeptide, MATRIXYL, available from SEDERMA, reference compound]
Collagen I: Percentage of variation with respect to solvent (Collagen I; 1 ppm): +8% | Collagen I: Percentage of variation with respect to solvent (Collagen I; 2 ppm): +30% | Collagen I: Percentage of variation with respect to solvent (Collagen I; 4 ppm): +48% | Collagen I: Percentage of variation with respect to solvent (Collagen I; 8 ppm): +93% | Fibronectin: Percentage of variation with respect to solvent (Fibronectin; 1 ppm): +24% | Fibronectin: Percentage of variation with respect to solvent (Fibronectin; 2 ppm): +20% | Fibronectin: Percentage of variation with respect to solvent (Fibronectin; 4 ppm): +74% | Fibronectin: Percentage of variation with respect to solvent (Fibronectin; 8 ppm): +100% | Collagen IV: Percentage of variation with respect to solvent (Collagen IV; 1 ppm): +6% | Collagen IV: Percentage of variation with respect to solvent (Collagen IV; 2 ppm): +12% | Collagen IV: Percentage of variation with respect to solvent (Collagen IV; 4 ppm): +15% | Collagen IV: Percentage of variation with respect to solvent (Collagen IV; 8 ppm): +22% | Hyaluronic Acid: Percentage of variation with respect to solvent (Hyaluronic Acid; 1 ppm): +3% | Hyaluronic Acid: Percentage of variation with respect to solvent (Hyaluronic Acid; 2 ppm): +26% | Hyaluronic Acid: Percentage of variation with respect to solvent (Hyaluronic Acid; 4 ppm): +28% | Hyaluronic Acid: Percentage of variation with respect to solvent (Hyaluronic Acid; 8 ppm): +31%

Oleoyl-RGDS [oleoyl derivative of RGDS=Arg-Gly-Asp-Ser]
Collagen I: Percentage of variation with respect to solvent (Collagen I; 1 ppm): −7% | Collagen I: Percentage of variation with respect to solvent (Collagen I; 3 ppm): −2% | collagen I stimulation (in words) (Collagen I): do not show collagen I stimulation

Acetyl-YGG
Collagen I: Percentage of variation with respect to solvent (Collagen I; 1 ppm): −2% | Collagen I: Percentage of variation with respect to solvent (Collagen I; 3 ppm): +5% | Collagen I: Percentage of variation with respect to solvent (Collagen I; 5 ppm): −11% | collagen I stimulation (in words) (Collagen I): do not show collagen I stimulation

Transforming Growth Factor-β [TGF-β, reference compound]
Fibronectin: Percentage of variation with respect to solvent (Fibronectin; 10^E−6%): +176% | Collagen IV: Percentage of variation with respect to solvent (Collagen IV; 10^E−6%): +4% | Hyaluronic Acid: Percentage of variation with respect to solvent (Hyaluronic Acid; 10^E−6%): +43%

N-Palmitoyl-Gly-Gln-Pro-Arg (Palmitoyl-GQPR) [Pal GQPR, 500 ppm solution sold as RIGIN by SEDERMA]
Collagen I: Percentage of variation with respect to solvent (Collagen I; 0.5 ppm): +4% | Collagen I: Percentage of variation with respect to solvent (Collagen I; 1.5 ppm): −1% | Collagen I: Percentage of variation with respect to solvent (Collagen I; 2.5 ppm): +19% | Collagen I: Percentage of variation with respect to solvent (Collagen I; 2.5 ppm, listed as N-Palmitoyl-Gly-Gln-Pro-Arg): +19% | Collagen I: Percentage of variation with respect to solvent (Collagen I; 3.64 ppm): +65% | Collagen I: Percentage of variation with respect to solvent (Collagen I; 3.64 ppm, listed as tetrapeptide): +65% | effect on biomolecule synthesis under these experimental conditions (in words) (Collagen I): stimulating effect | increase of collagen synthesis compared to blank tests (without peptide) (collagen [1]; peptide 2.5 ppm, Vitamin C 1.5 ppm): +10% | increase of collagen synthesis compared to blank tests (without peptide) (collagen [1]; peptide 2.5 ppm, Vitamin C 15 ppm): +27% | increase of collagen synthesis compared to blank tests (without peptide) (collagen [1]; peptide 3.6 ppm, Vitamin C 1.5 ppm): +29% | increase of collagen synthesis compared to blank tests (without peptide) (collagen [1]; peptide 3.6 ppm, Vitamin C 15 ppm): +42% | Fibronectin: Percentage of variation with respect to solvent (Fibronectin; 0.5 ppm): +1% | Fibronectin: Percentage of variation with respect to solvent (Fibronectin; 1.5 ppm): +15% | Fibronectin: Percentage of variation with respect to solvent (Fibronectin; 2.5 ppm): +35% | Fibronectin: Percentage of variation with respect to solvent (Fibronectin; 3.64 ppm): +56% | Collagen IV: Percentage of variation with respect to solvent (Collagen IV; 0.5 ppm): +5% | Collagen IV: Percentage of variation with respect to solvent (Collagen IV; 1.5 ppm): −8% | Collagen IV: Percentage of variation with respect to solvent (Collagen IV; 2.5 ppm): −5% | Collagen IV: Percentage of variation with respect to solvent (Collagen IV; 3.64 ppm): −14% | Hyaluronic Acid: Percentage of variation with respect to solvent (Hyaluronic Acid; 0.5 ppm): −4% | Hyaluronic Acid: Percentage of variation with respect to solvent (Hyaluronic Acid; 1.5 ppm): +9% | Hyaluronic Acid: Percentage of variation with respect to solvent (Hyaluronic Acid; 2.5 ppm): −13% | Hyaluronic Acid: Percentage of variation with respect to solvent (Hyaluronic Acid; 3.64 ppm): −1%

Oleoyl-RGD
Collagen I: Percentage of variation with respect to solvent (Collagen I; 1 ppm): +5% | Collagen I: Percentage of variation with respect to solvent (Collagen I; 3 ppm): −3% | collagen I stimulation (in words) (Collagen I): do not show collagen I stimulation

Val-Trp
collagen stimulating activity (in words) (collagen [2]): no significant collagen stimulating activity
